Measured values from patent US6645983B1, “Pharmaceutical compositions comprising 4-quinolones for treating cancers” (Laboratoire L. Lafon, priority 1999, dated 2003).

Columns and labels:
A-427 = assay: MTT test, cytotoxic activity on non-clonogenic cell lines; assay type: cell-based; conditions: Homo sapiens, 10^−5 M, 72 hours of incubation, control condition = 100%, mean value, read-out: mean optical density as percentage of control, A-427
Description: (§1) The principle of the MTT test is based on the mitochondrial reduction, by the metabolically active live cells, of the yellow-colored product MTT (3-(4,5-dimethylthiazol-2-yl)-2,5-diphenyltetrazolium bromide) to a blue-colored product, formazan. The amount of formazan thus obtained is directly proportional to the amount of live cells present in the culture well(s). This amount of formazan is measured by spectrophotometry.
(§2) The cell lines are maintained as a monolayer culture at 37° C. in stoppered culture dishes containing MEM 25 MM HEPES (Minimum Essential Medium) base medium. This medium is suited to the growth of a range of various mammalian diploid or primary cells. This medium is then supplemented with:
(§3) The 12 human cancer cell lines which were used were obtained from the American Type Culture Collection (ATCC, Rockville, Md., USA). These 12 cell lines are:
(§4) Experimentally, 100 μl of a cell suspension containing 20 000 to 50 000 (depending on the cell type used) cells/ml of culture medium are inoculated -in 96-well flat-bottomed multi-well plates and are left to stand in an incubator at 37° C., 5% CO2 and 70% humidity. After an incubation time of 24 hours, the culture medium is replaced with 100 μl of fresh medium containing either the various test compounds—at concentrations varying from 10^−5 to 10^−10 M—or the solvent having served for dissolving the products to be tested (control condition). […] The microplates are thus incubated for 3 hours at 37° C., then centrifuged for 10 minutes at 400 g. The yellowish solution of MTT is removed and the blue formazan crystals formed in the cell region are dissolved in 100 μl or DMSO. The microplates are then shaken for 5 minutes. […] Software incorporated in the spectrophotometer calculates the average optical density values and the standard deviation (SD) and standard error of mean (SEM) values.

A549 = assay: as above; assay type: cell-based; conditions: Homo sapiens, 10^−5 M, 72 hours of incubation, control condition = 100%, mean value, read-out: mean optical density as percentage of control, A549
Description: as §1, §2, §3, §4

HCT-15 = assay: as above; assay type: cell-based; conditions: Homo sapiens, 10^−5 M, 72 hours of incubation, control condition = 100%, mean value, read-out: mean optical density as percentage of control, HCT-16
Description: as §1, §2, §3, §4

MCF7 = assay: as above; assay type: cell-based; conditions: Homo sapiens, 10^−5 M, 72 hours of incubation, control condition = 100%, mean value, read-out: mean optical density as percentage of control, MCF7
Description: as §1, §2, §3, §4

LoVo = assay: as above; assay type: cell-based; conditions: Homo sapiens, 10^−5 M, 72 hours of incubation, control condition = 100%, mean value, read-out: mean optical density as percentage of control, LoVo
Description: as §1, §2, §3, §4

PC-3 = assay: as above; assay type: cell-based; conditions: Homo sapiens, 10^−5 M, 72 hours of incubation, control condition = 100%, mean value, read-out: mean optical density as percentage of control, PC-3
Description: as §1, §2, §3, §4

T-47D = assay: as above; assay type: cell-based; conditions: Homo sapiens, T47D; 10^−5 M, 72 hours of incubation, control condition = 100%, mean value; read-out: mean optical density as percentage of control, T-47D
Description: as §1, §2, §3, §4

U-373MG = assay: as above; assay type: cell-based; conditions: Homo sapiens, U373 MG; 10^−5 M, 72 hours of incubation, control condition = 100%, mean value; read-out: mean optical density as percentage of control, U-373MG
Description: as §1, §2, §3, §4

U-87MG = assay: as above; assay type: cell-based; conditions: Homo sapiens, U-87 MG; 10^−5 M, 72 hours of incubation, control condition = 100%, mean value; read-out: mean optical density as percentage of control, U-87MG
Description: as §1, §2, §3, §4

J82 = assay: as above; assay type: cell-based; conditions: Homo sapiens, 10^−5 M, 72 hours of incubation, control condition = 100%, mean value, read-out: mean optical density as percentage of control, J82
Description: as §1, §2, §3
(§5) J82 (code ATCC: HTB-1) and T24 (code ATCC: HTB-4) which are two bladder cancers,
as §4

T24 = assay: as above; assay type: cell-based; conditions: Homo sapiens, T-24; 10^−5 M, 72 hours of incubation, control condition = 100%, mean value; read-out: mean optical density as percentage of control, T24
Description: as §1, §2, §3, §5, §4

[1] = Determination of the maximum tolerated dose (MTD); conditions: B6D2F1/Jico, mouse, in vivo, ip; single intraperitoneal administration, doses 2.5 to 160 mg/kg, survival over 14 days
Description: The evaluation of the maximum tolerated dose was performed on 4- to 6-week-old B6D2F1/Jico mice. The compounds were administered intraperitoneally at increasing doses ranging from 2.5 to 160 mg/kg. The value of the MTD (expressed in mg/kg) is determined from the observation of the survival rate of the animals over a 14-day period after a single administration of the product under consideration. The change in weight of the animals is also monitored during this period. When the MTD value is greater than 160 mg/kg, the MTD value is considered as being 160 mg/kg by default.

SW1088 = assay: MTT test, cytotoxic activity on non-clonogenic cell lines; assay type: cell-based; conditions: Homo sapiens, 10^−5 M, 72 hours of incubation, control condition = 100%, mean value, read-out: mean optical density as percentage of control, SW1088
Description: as §1, §2, §3
SW1088 (code ATCC: HTB-12) which is an astro-cytoma,
as §4

SMILES	viability at 10 µM (A-427) [%]	viability at 10 µM (A549) [%]	viability at 10 µM (HCT-15) [%]	viability at 10 µM (MCF7) [%]	viability at 10 µM (LoVo) [%]	viability at 10 µM (PC-3) [%]	viability at 10 µM (T-47D) [%]	viability at 10 µM (U-373MG) [%]	viability at 10 µM (U-87MG) [%]	viability at 10 µM (J82) [%]	viability at 10 µM (T24) [%]	MTD at 14 day [1] [mg/kg]	viability at 10 µM (SW1088) [%]
COc1ccc(-c2c[nH]c3cc(OC)c(OC)cc3c2=O)cc1 [CRL8354, 6,7-Dimethoxy-3-(4-methoxyphenyl)-1,4-dihydro-4-quinolinone]	97.2	98.5	95.9	102	98.4	93.7	104	97.7	102	98.2	91.4	> 160	93.2
COc1cc2[nH]cc(-c3ccccc3)c(=O)c2cc1OC [CRL8355, 6,7-Dimethoxy-3-phenyl-1,4-dihydro-4-quinolinone]	103	98.6	99.5	94.8	98.7	100	98.5	97.7	94.4	94.9	89.4	> 160	97.5
COc1ccc(-c2cn(CCCN(C)C)c3cc(OC)cc(OC)c3c2=O)cc1 [CRL8357, N-[3-(Dimethylamino)propyl]-5,7-dimethoxy-3-(4-methoxyphenyl)-1,4-dihydro-4-quinolinone]	59.5	73.3	79.5	95.8	97.9	85.6	94.1	96	84.4	84.7	99	80	69.6
COc1ccc(-c2c[nH]c3cc(OC)ccc3c2=O)cc1 [CRL8358, 7-Methoxy-3-(4-methoxyphenyl)-1,4-dihydro-4-quinolinone]	34.5	55	89.1	84.1	38	89.1	92.1	41	80.1	92.7	90.7	> 160	98.3
COc1ccc2c(=O)c(-c3ccccc3)c[nH]c2c1 [CRL8359, 7-Methoxy-3-phenyl-1,4-dihydro-4-quinolinone]	25.8	73.9	59.9	65.8	30.9	123	41.2	41.2	114	52.2	34.7	> 160	140
CCOC(=O)Cn1cc(-c2ccc(OC)cc2)c(=O)c2c(OC)cc(OC)cc21 [CRL8360, Ethyl 2-[5,7-dimethoxy-3-(4-methoxyphenyl)-4-oxo-1,4-dihydro-1-quinolinyl]acetate]	71.3	85.6	91.8	95.3	98.6	81.5	82.1	88	97.6	81.2	87.5	> 160	75.1
COc1ccc(-c2cn(C)c3c(OC)ccc(OC)c3c2=O)cc1 [CRL8371]	30.8	42.9	25.2	45.6	45.6	54.2	49.3	42.8	58.7	76.3	52.2	40	40.8
COc1ccc(-c2cn(CC#N)c3cc(OC)cc(OC)c3c2=O)cc1 [CRL8372, [5,7-Dimethoxy-3-(4-methoxyphenyl)-4-oxo-1,4-dihydro-1-quinolinyl]acetonitrile]	93.9	93.4	84.3	96.6	83.9	110	65.7	94.8	92.9	93	81.2	> 160	98.1
COc1ccc(-c2cn(C)c3cc(OC)cc(O)c3c2=O)cc1 [CRL8377, 5-Hydroxy-7-methoxy-3-(4-methoxyphenyl)-1-methyl-1,4-dihydro-4-quinolinone]	26.5	67	86.6	104	85	87.4	66.9	56.7	49.5	98.7	85	> 160	99.8
COc1ccc(-c2cn(C)c3ccc(OC)cc3c2=O)cc1 [CRL8378, 6-Methoxy-3-(4-methoxyphenyl)-1-methyl-1,4-dihydro-4-quinolinone]	72.3	91	105	93.5	107	100	110	98.1	73	99.6	89.2	> 160	108
COc1ccc2c(c1)c(=O)c(-c1ccccc1)cn2C [CRL8379, 6-Methoxy-1-methyl-3-phenyl-1,4-dihydro-4-quinolinone]	94.2	94	106	91.6	102	99.2	99.3	113	95.3	101	102	> 160	98.3
